Experimental data published in patent publication US20100135903A1, “USE OF A DNA DAMAGING AGENT AND A LIGAND FOR THE TREATMENT OF CANCER” (MEDVET SCIENCE PTY. LTD., priority 2006, published 2010).
Where two headings read alike, the source gives them in different places.

Assays:
[1] = test system: U2OS; test: Binding of La-specific mAb to apoptotic human cancer cell lines (U2OS); assay type: cell-based; conditions: 0.5 μM staurosporine, 20 μg/mL etoposide, 3B9-FITC staining
Description: Direct immunofluorescence staining was performed using 1-2×10^5 cells at 10^6 cells/mL for 30 min at room temperature in PBS containing 0.1% BSA and 5 μg/mL of FITC-conjugated mAb. […] Cell viability was assessed by the exclusion of PI detected using the FL-2 (585-nm filter) or the exclusion of 7-AAD detected using the FL-3 (>650 nm filter).

[2] = test system: Raji; test: Binding of La-specific mAb to apoptotic human cancer cell lines (Raji); conditions: 2 μM staurosporine, 20 μg/mL etoposide or 0.1 μg/mL vincristine, 3B9-FITC staining
[3] = test system: HeLa; test: Binding of La-specific mAb to apoptotic human cancer cell lines (HeLa); conditions: 0.5 μM staurosporine, 20 μg/mL etoposide or 0.1 μg/mL vincristine, 3B9-FITC staining
[4] = test system: Jurkat; test: Binding of La-specific mAb to apoptotic human cancer cell lines (Jurkat); conditions: 0.5 μM staurosporine, 20 μg/mL etoposide or 0.1 μg/mL vincristine, 3B9-FITC staining
[5] = test system: apoptotic Jurkat cells; test: MDC inhibition of protein crosslinking and 3B9 binding in cisplatin-treated Jurkat cells; assay type: cell-based, human; conditions: for IC50: Homo sapiens, read-out: concentration of MDC required to inhibit half of the binding of 3B9
Description: FIG. 18 depicts that La antigen is crosslinked during apoptosis. (A) Jurkat cells incubated in 20 μg/mL cisplatin were removed at specified time points and incubated for 10 min. in 1% Triton X-100 solution before 3B9 binding analysis. Data are presented as density plots of staining with 3B9 vs. 7-AAD. (B) Immunoblots of cell lysates of control and cisplatin-treated Jurkat cells were probed with 3B9 for expression of La (top panels) or actin as a loading control (bottom panels) at specified times. (C) Jurkat cells incubated in the absence or presence of increasing concentrations of cisplatin were labeled with cadaverine-biotin added at 100 μM for 48 h. Cells were stained with strepatavidin-Alexa488 and analyzed by flow cytomtery. Data shown are MFI±SEM (n=3). (D) Jurkat cells incubated in the absence or presence of 20 μg/mL cisplatin were incubated with increasing concentrations of MDC. Cells were analyzed at specified times (24 □, 48 ? and 72 h ▪) for sulforhodamine 101 staining. Inset summarizes the dependence of the protein cross-linking ratio on MDC concentration at 48 h (—) and 72 h ( . . . ) after cisplatin treatment of Jurkat cells. (E) Jurkat cells incubated with cisplatin in the absence or presence of increasing concentrations of MDC were stained with 3B9. 3B9-specific binding is presented as Net MFI±SEM (n=3). Inset summarizes the dependence of 3B9-specific binding on MDC concentration at 24 h (—), 48 h (— —) and 72 h ( . . . ) after cisplatin treatment of Jurkat cells. Data are representative of three identical and independent assays, which produced similar results.
Transglutaminase 2 (TG2)-mediated protein-protein crosslinking in apoptotic cells was investigated using a modification of a previously described method. Briefly, cells were resuspended at 1×10^6 cells/mL in PBS containing 1% Triton X-100, 0.2 μg/mL sulforhodamine 101 and 0.1 μM SytoxGreen. Samples were vortexed and incubated for 5 min. before analysis by flow cytometry where fluorescence from Sytox Green and sulforhodamine were detected using FL-1 and FL-3, respectively. The degree of crosslinking in apoptotic cells was calculated as the ratio of the MFI of sulforhodamine staining in apoptotic cells to the MFI in control cells (protein crosslinking ratio). In other experiments, cells were incubated with PBS or 1% Triton X-100 in PBS for 10 min. at RT with intermittent vortexing.
To test inhibition of protein crosslinking, cultured cells were incubated with increasing concentrations of the competitive TG2inhibitor, monodansylcadaverine (MDC). MDC was dissolved in DMSO at 25 mM and then diluted in culture media before it was added to cell cultures at the specified concentrations for the specified duration. […]

[6] = test system: PANC-1 cells; test: Cell death and 3B9 binding of PANC-1 cells treated with gemcitabine and TSA in vitro; assay type: cell-based, human; conditions: compared with control or single agent
Description: FIG. 15 depicts that 3B9 binding to dead PANC-1 cells is augmented after combination treatment with gemcitabine and TSA produced additive cytotoxicity and DNA-damaging effects. PANC-1 cells were incubated with increasing concentrations of gemcitabine in the absence (clear columns) or presence of 100 ng/mL (hatched columns) or 200 ng/mL (filled columns) of TSA. Analysis was done for viability using 7-AAD (A), 3B9-specific binding (B) and DNA damage using γH2AX staining (C). Data are presented as mean±SEM from three independent experiments. Photomicrographs show PANC-1 cells treated with gemcitabine and TSA (+) or not (−), which were stained with γH2AX-specific mAb and 7-AAD (D).
Apoptosis or cell death was induced by adding cytotoxic drugs to culture media at the specified concentrations. […] Control (untreated) cells had ≧90% viability determined by PI or trypan blue staining (data not shown). […]
Indirect immunofluorescence staining was performed using purified mouse antibodies at 5 μg/mL for 30 min. at room temperature (RT) in PBS followed by Alexa488-conjugated anti-mouse IgG at 2 μg/mL for 30 min. at RT in PBS. […] Cells were washed then incubated (30 min. at RT) with 2 μg/mL of FITC-conjugated anti-rabbit IgG antibody, which was detected using the FL-1 channel. […] Flow cytometry data were analyzed using WinMDI v2.8 (Scripps Research Institute, La Jolla, Calif.). […]

[7] = test system: PANC-1 cells; test: MTS proliferation assay of PANC-1 cells; assay type: cell-based, human
Description: FIG. 50 depicts that gemcitabine and TSA synergise to reduce proliferation rates among PANC-1 cells in vitro. PANC-1 cells (2×10^4 cells) were seeded in flat bottom 96-well plates overnight using phenol-free RPMI-1640 medium containing 10% FCS (medium). A serial dilution of 2×10^4 cells was used to construct a standard curve for the MTS assay. Triplicate wells were incubated with increasing concentrations of TSA (nM) with or without the addition of increasing concentrations of gemcitabine. Three identical plates were incubated for 24, 48 or 72 h then medium was decanted and fresh medium (100 μL) containing 20 μL MTS/PMS substrate was added to all wells. Assays were performed according to the manufacturer's instructions. The change in the absorbance reading over time was calculated for each condition in units of change per 12 h (upper panel), which was converted to units of cell number change per 12 h (lower panel) using a standard curve of the absorbance reading […] (r^2=0.99).

Row | SMILES | percentage of PI+ and 3B9+ events after subtraction of control (PI+ and Sal5+) events [1] [%] | percentage of PI+ and 3B9+ events after subtraction of control (PI+ and Sal5+) events [2] [%] | percentage of PI+ and 3B9+ events after subtraction of control (PI+ and Sal5+) events [3] [%] | percentage of PI+ and 3B9+ events after subtraction of control (PI+ and Sal5+) events [4] [%] | also measured
1 | COc1cc([C@@H]2c3cc4c(cc3[C@@H](O[C@@H]3O[C@@H]5CO[C@@H](C)O[C@H]5[C@H](O)[C@H]3O)[C@H]3COC(=O)[C@H]23)OCO4)cc(OC)c1O [Etoposide, etoposide] | 28.0 | 21.3 | 36.1 | 22.6 | –
2 | CN(C)c1cccc2c(S(=O)(=O)NCCCCCN)cccc12 [MDC, monodansylcadaverine] | – | – | – | – | IC50 ([5]; 24 h after cisplatin treatment of Jurkat cells): 260 ± 1 µM; IC50 ([5]; 48 h after cisplatin treatment of Jurkat cells): 110 ± 1 µM; IC50 ([5]; 72 h after cisplatin treatment of Jurkat cells): 150 ± 1 µM; effect on protein crosslinking (sulforhodamine crosslinking ratio) ([5]; cisplatin-treated Jurkat cells): dose-dependent inhibitory effect
3 | CN[C@@H]1C[C@H]2O[C@@](C)([C@@H]1OC)n1c3ccccc3c3c4c(c5c6ccccc6n2c5c31)C(=O)NC4 [Staurosporine, staurosporine] | 65.9 | 28.8 | 62.5 | 56.1 | –
4 | CC(/C=C/C(=O)NO)=C\[C@@H](C)C(=O)c1ccc(N(C)C)cc1 [TSA, trichostatin A] | – | – | – | – | 3B9-specific binding to PANC-1 cells [6]: did not alter 3B9 binding; proliferation of PANC-1 cells ([7]; TSA alone): inhibited proliferation
5 | CC[C@]1(O)C[C@H]2CN(CCc3c([nH]c4ccccc34)[C@@](C(=O)OC)(c3cc4c(cc3OC)N(C=O)[C@H]3[C@@](O)(C(=O)OC)[C@H](OC(C)=O)[C@]5(CC)C=CCN6CC[C@]43[C@@H]65)C2)C1 [Vincristine, vincristine] | – | 9.8 | 18.6 | 12.1 | –
6 | Nc1ccn([C@@H]2O[C@H](CO)[C@@H](O)C2(F)F)c(=O)n1 [gemcitabine] | – | – | – | – | proliferation of PANC-1 cells ([7]; gemcitabine added at a TSA concentration of 50 nM): completely inhibited; numbers of PANC-1 cells in the cultures ([7]; gemcitabine added at a TSA concentration of 200 nM): significantly reduced the numbers
